“Also recorded” adds a separate entry of the source. Like-named read-outs stand apart in the source and are kept apart here.
How the values were obtained:
[1] = test system: patient-derived AML cells; test: Patient-derived xenotransplant (PDX) model of chemorefractory AML; settings: for added benefit of ribonucleotide reductase inhibitor to THU+decitabine: dT 2 g/kg IP, hydroxyurea 100 mg/kg IP Day 1 before THU+decitabine days 2 and 3; for human CD45+ (hCD45+) AML cells in bone marrow: Day 45
From the text: NSG mice were tail-vein inoculated with patient-derived AML cells (1×10^6 cells/mouse) and randomized to (i) PBS vehicle control; (ii) CDA-inhibition by intra-peritoneal (IP) tetrahydrouridine (THU) and de novo pyrimidine synthesis inhibition by IP thymidine (dT); (iii) Dec; (iv) THU and Dec; (v) THU, Dec and dT (n=5/group). PBS, THU+dT mice were euthanized for distress on D42, and other mice were sacrificed for analysis on D63. […] C) Bone marrow human (hCD45) and murine (mCd45) myelopoiesis content. Flow-cytometry. Median±IQR. p-value Mann-Whitney test 2-sided. […] Median±IQR. p-value Mann-Whitney test 2-sided.
NSG mice were tail-vein inoculated with patient-derived AML cells (1×10^6 cells/mouse) and on Day 9 after inoculation randomized to the treatments as shown (n=7/group). Mice were euthanized if there were signs of distress. A) Experiment schema; B) Time-to-distress and euthanasia. C) Bone marrow human (hCD45) and murine (mCd45) myelopoiesis content. Femoral bones flushed after euthanasia. Measured by flow-cytometry. Median±IQR. D) Spleen weights at time-of-distress/euthanasia. Median±IQR. E) Spleens at the time-of-distress/euthanasia.
NSG mice were tail-vein inoculated with patient-derived AML cells (1×10^6 cells/mouse) and randomized to the treatments shown (n=5/group). Blood counts were obtained periodically by tail-vein phlebotomy. Mice were euthanized for signs of distress. A) Experiment schema; B) Time-to-distress. Log-rank test. […] D) Bone marrow replacement by AML. Bone marrow human and murine CD45+ cells measured by flow-cytometry (FIG. 32) after euthanasia (time-points panel B). Median±IQR. p-value Mann-Whitney test 2-sided. […] Flow cytometry (FIG. 33).
C) Percentage of human CD45+ (huCD45) positive cells in bone marrow. Flow cytometry. Median±IQR. p-value Mann-Whitney test 2-sided. 5 mice in each treatment group analyzed.
Mice were euthanized for signs of distress. A) Experiment schema; B) Time-to-distress. p-value Log-rank test. C) Bone marrow human leukemia cell burden at time-of-distress. Flow cytometry for human CD45+ cells. Median±IQR. p-value Mann-Whitney test 2-sided. […] E) Spleen weights at time-of-distress. Median±IQR. p-value Mann-Whitney test 2-sided.
NSG mice were tail-vein inoculated with patient-derived AML cells (1×10^6 cells/mouse) and on Day 5 after inoculation randomized to the treatments as shown (n=7/group). Mice were euthanized if there were signs of distress.

[2] = test system: LL3 lung cancer cells; test: Syngeneic disseminated lung cancer model (LL3, tail vein); type: in vivo, C57BL/6 mice; settings: for increase of time-to-distress over vehicle: treatment from day 21, Dec 0.2, THU-Dec 10/0.1, 5Aza 2, THU-5Aza 10/1 mg/kg sc 3×/wk
From the text: (§1) 2-sided Mann-Whitney test.
as §1, §1

[3] = cited from earlier work
[4] = test system: Dck, Uck2, Cda and Cad; test: F1339 cells: pyrimidine metabolism enzyme expression by QRT-PCR and Western blot; type: cell-based, murine
Experimental: (§2) FIG. 2. […] F1339 p53-null cancer cells were seeded at D0 and treated with DMSO, deoxycytidine (DC, 0.5 μM), cytidine (CY, 5 μM), Dec (0.5 μM) and 5Aza (5 μM). […] Cell counts by automated counter, mean±SD. […] Gene expression by Q-PCR, median±interquartile range (IQR) (3 biological replicates), *p<0.05, **p<0.01. 2-sided Mann-Whitney test. […] Western blot.
RNA was extracted using Trizol reagent (Invitrogen) before the generation of complementary DNA using the iScript™ cDNA Synthesis Kit (Bio-rad). Quantitative PCR was run on StepOnePlus Real-Time PCR System (Applied Biosystems), using comparative Ct value method to quantify the expression of target genes in different samples. Gene expression was normalized to the housekeeping gene β-actin.
Tumor cells were lysed with RIPA lysis buffer and protein concentrations determined by BCA protein assay kit (Thermo Fisher Scientific). Samples with equal quantity (40 μg) of total protein were mixed with 4× loading buffer and 10× sample reducing reagent (Thermo Fisher Scientific), subjected to electrophoresis on a 12% (v/v) SDS-polyacrylamide gel, then transferred onto polyvinylidene fluoride membranes. After blocking with 5% dried skimmed milk, the membranes were washed three times and incubated with primary antibodies at 4° C. overnight. After washing, the membranes were further incubated with corresponding horseradish peroxidase-conjugated secondary antibodies. The membranes were then treated with Pierce™ ECL substrates (Thermo Scientific) then visualized using X-ray film.

[5] = test system: dCTP, dTTP and pyrimidine metabolism enzymes; test: AML cells: nucleotide levels (LCMS/MS) and enzyme expression (QRT-PCR, Western blot); type: cell-based
Experimental: (§3) A) Experiment schema. Vehicle, natural deoxycytidine (dC) 0.5 uM, natural cytidine (C) 5 uM, Dec 0.5 uM, or 5Aza 5 uM were added once to AML cells at 0 hours. B) Cell counts. By automated counter. Means±SD for 3 independent biological replicates for each cell line. C) Dec and 5Aza have opposite effects on dCTP levels. Measured by LCMS/MS 24 hrs after addition of Dec or 5Aza. Analyses of 2 or more independent nucleotide extractions from 3 different AML cells lines. Means±SD; p-values paired t-test, 1-sided. D) Gene expression 72 hours after Dec or 5Aza. Gene expression by QRT-PCR, relative to average expression in vehicle-treated controls. Means±SD for 3 independent biological replicates in each of 3 AML cell lines; p-values unpaired t-test vs vehicle, 2-sided. E) Western blot 72 hours after Dec or 5Aza. AML cells THP1, OCI-AML3 and K562. Western blots were reproduced in three independent biological replicates.
C) Off-target pathways of Dec and 5Aza. D) Effects of Dec and 5Aza on RRM2A, RRM2B and CTPS1 protein levels. Western blots 72 hours after addition of a single dose of Dec 0.25 μM or 5Aza 2.5 uM. Western blots were reproduced in biological replicates.

[6] = test system: UCK2-knockout HAP1 leukemia cells; test: Growth inhibition of UCK2-knockout HAP1 leukemia cells; type: cell-based; settings: Homo sapiens
From the text: (§4) A) DCK and UCK2 knockout (KO) were confirmed by Western blot. HAP1 leukemia cells, KO by CRISPR-Cas9. B) DCK-KO lowers dCTP and UCK2-KO lowers dTTP. Analysis of independent nucleotide extractions. Means±SD; p-values unpaired t-test, 2-sided. C) Sensitivity of Wildtype, DCK-KO and UCK2-KO HAP1 leukemia cells to Dec vs 5Aza. Means±SD of 3 independent biological replicates.
(§5) Study approvals. Bone marrow samples for research were obtained from patients with AML (Acute myeloid leukemia) with written informed consent on a study protocol approved by the Cleveland Clinic Institutional Review Board (Cleveland, Ohio). Murine experiments were approved by the Cleveland Clinic Institutional Animal Care and Use Committee (Cleveland, Ohio). Sources of cell lines and animals. […] DNMT1 Immuno-detection and quantitation: Immunohistochemistry (IHC) was performed on decalcified and formalin-fixed paraffin embedded bone marrow biopsy sections (4 μm) and on positive and negative controls (parental and DNMT1-KO HCT116 cells). […] Nuclei positive for DNMT1 were identified and quantified in high resolution, large field-of-view images per ImageIQ algorithms (Image IQ Inc., Cleveland, OH) after segmentation of images and subtraction of bone as has been previously described^4.

[7] = test system: DCK-knockout HAP1 leukemia cells; test: Growth inhibition of DCK-knockout HAP1 leukemia cells; type: cell-based; settings: Homo sapiens
From the text: as §4, §5

[8] = test system: DNMT1; test: Serial patient bone marrow biopsies, DNMT1 immunohistochemistry; type: in vivo, human; settings: for decrease of DNMT1 protein at time-of-response compared to pre-treatment: 13 patients
From the text: (§6) Serial bone marrow biopsies from the same patient were cut onto the same slide, stained for DNMT1, and the number of DNMT1-positive nuclei was quantified objectively using ImageIQ software in 13 patients and positive/negative controls (tissue blocks of HCT116 wild-type and DNMT1-knockout cells respectively). D=days of therapy. Pre-Rx=pre-treatment; HI=hematologic improvement; CR=complete remission; SD=stable disease; Rel.=relapse. Mean±SD of ×3 image segments (cellular regions) per sample; p-value paired t-test, 2-sided. C) Expression of key pyrimidine metabolism enzymes at relapse/progression on Dec. […] Bone marrow cells aspirated pre-treatment and at relapse/progression on Dec (13 patients, median duration of therapy 175 days, range 97-922) or 5Aza (14 patients, median duration of therapy 433 days, range 61-1155) were analyzed by QRT-PCR. Mean±SD technical replicates×3. Paired t-test, 2-sided. D) Expression by Western blot of DNMT1 and key pyrimidine metabolism enzymes in Dec-resistant AML cells (THP1, K562, OCI-AML3 and MOLM13), and in parental THP1 AML cells treated with vehicle, Dec or 5-azacytidine (5Aza). Western blots.
as §5

[9] = test system: F1339 p53-null SCLC cells; test: F1339 SCLC cells in vitro: proliferation, apoptosis, differentiation; type: cell-based, murine
Experimental: as §2

[10] = test system: DCK; settings: leukemia cells, within 48 hours; cited from earlier work
[11] = test system: AML cells (MOLM13, OCI-AML3, THP1); test: AML cell proliferation after a single dose; type: cell-based; settings: decitabine, deoxycytidine 0.5 μM, 5-azacytidine, cytidine 5 μM
Experimental: as §3

[12] = test system: parental HAP1 leukemia cells; test: Growth inhibition of parental HAP1 leukemia cells; type: cell-based; settings: Homo sapiens
From the text: as §4, §5

[13] = test system: DCK, UCK2, CDA and CAD; test: Patients' bone marrow enzyme expression pre-treatment vs relapse, QRT-PCR; type: in vivo, human; settings: MDS patients' bone marrow; for average increase of CAD expression at relapse: not in all patients
From the text: as §6
DNA isolation, reverse transcription (RT) and real-time PCR. As previously described^59. Primer sequences were:
CAD increased an average of ˜8-fold at relapse on either pro-drug, but not in all patients (FIG. 23C). The proliferation marker MKI67 increased at relapse in almost all the patients, consistent with active progression of disease (FIG. 23C).

[14] = test system: thoracic malignancies; settings: cited from earlier work
[15] = lung cancer cells, within 72-96 hours
[16] = THU+dT day 42, other treatments day 63
[17] = HAP1, read-out: GI50 (concentration for 50% growth inhibition)

Cc1cn([C@H]2C[C@H](O)[C@@H](CO)O2)c(=O)[nH]c1=O [dT, deoxythymidine]
added benefit of ribonucleotide reductase inhibitor to THU+decitabine [1]: did not add further to the benefit from THU

O=C1NC(O)CCN1[C@@H]1O[C@H](CO)[C@@H](O)[C@H]1O (stereo partly drawn) [THU, tetrahydrouridine]
increase of efficacy of decitabine or 5-azacytidine by THU ([2]; in vivo studies of murine lung cancer): ~2 fold
myelosuppression ([2]; murine models of lung cancer): without bone marrow suppression
increase of oral bioavailability of decitabine and 5-azacytidine ([3]; addition of THU): ~10 fold
increase of plasma half-lives of decitabine and 5-azacytidine ([3]; addition of THU): ~10 fold

Nc1ncn([C@@H]2O[C@H](CO)[C@@H](O)[C@H]2O)c(=O)n1 [5-azacytidine]
expression of Dck, Uck2, Cda and Cad ([4]; decitabine 0.5 μM, 5-azacytidine 5 μM): increased Dck, Cda and Cad expression several-fold
CAD upregulation ([4]; lung cancer cells): ~2 fold
DCK upregulation ([4]; lung cancer cells): ~3 fold
increase of time-to-distress over vehicle [2]: about 20 days
DNMT1 protein [5]: depleted DNMT1
RRM1 protein [5]: decreased levels of the ribonucleotide reductase sub-unit RRM1
TYMS protein [5]: downregulated
dCTP amount ([5]; 24 hour time-point): significantly decreased
dTTP amount ([5]; 24 hour time-point): decreased by both pro-drugs, but not to statistical significance
CDA mRNA and protein expression ([5]; 72 hour time-point): significantly increased
DCK mRNA and protein expression ([5]; 72 hour time-point): significantly increased
phosphorylation of CAD at serine 1856 ([5]; 72 hour time-point): decrease phosphorylation of CAD at serine 1856
total CAD or CTPS1 levels ([5]; 72 hour time-point): Neither pro-drug changed total CAD
GI50 ([6]; HAP1, UCK2-knockout cells, read-out: GI50 (concentration for 50% growth inhibition)): 15 µM
in vivo plasma half-life [3]: ~15 min
GI50 ([7]; HAP1, DCK-knockout cells, read-out: GI50 (concentration for 50% growth inhibition)): 2 µM
DNMT1 protein at time-of-relapse on-therapy [8]: rebounded to levels comparable to pre-treatment levels
decrease of DNMT1 protein at time-of-response compared to pre-treatment [8]: ~50%
cell membrane Annexin-V staining (apoptosis-induction) ([9]; 24 hours after initiation of drug exposure): unaltered cell membrane Annexin-V staining
morphologic changes of differentiation ([9]; Giemsa-stained cytospins Day 5): induced morphologic changes in the cells consistent with differentiation induction
Myc protein ([9]; Western blot Day 5): decreased Myc protein
p27/CDKN1B protein ([9]; Western blot Day 5): increased p27/CDKN1B protein
F1339 proliferation ([9]; decitabine 0.5 μM, 5-azacytidine 5 μM, cytarabine 0.5 μM): significantly decreased F1339 proliferation; also recorded: did significantly impede the SCLC cell proliferation
DCK upregulation [10]: ~30%
AML cell proliferation [11]: significantly decreased AML cell proliferation
GI50 ([12]; HAP1, parental cells, read-out: GI50 (concentration for 50% growth inhibition)): 4 µM
decrease of CDA expression at relapse [13]: ~50%
decrease of UCK2 expression at relapse [13]: ~50%
increase of DCK expression at relapse [13]: ~8 fold
average increase of CAD expression at relapse [13]: ~8 fold

Nc1ncn([C@H]2C[C@H](O)[C@@H](CO)O2)c(=O)n1 [decitabine]
CDA upregulation [4, 15]: ~3 fold
UCK2 upregulation [4, 15]: ~3 fold
increase of time-to-distress over vehicle [2]: about 20 days
median survival (time-to-distress) ([1]; Dec 0.2 mpk SC Day 1 and 2 each week): 75 days
median survival (time-to-distress) ([1]; Dec 0.2 mpk SC Day 1 and 4 each week): 60 days
human CD45+ (hCD45+) AML cells in bone marrow ([1]; Dec 0.3 mpk SC Day 1 and 2 each week): ~26%
human CD45+ (hCD45+) AML cells in bone marrow ([1]; Dec 0.3 mpk SC Day 1 and 4 each week): ~63%
bone marrow hCD45+ [1, 16]: ~85%
bone marrow murine Cd45+ (murine hematopoiesis) [1, 16]: ~5%
DNMT1-depletion in bone marrow cells ([1]; day 63, on-therapy, flow cytometry): ~35%
median survival (time-to-distress) ([1]; week-to-week alternation experiment (FIG. 28)): 111 days
GI50 [6, 17]: 0.1 µM
in vivo plasma half-life [3]: ~15 min
GI50 [7, 17]: 12 µM
myelosuppression ([14]; human, in vivo): grade ¾ myelosuppression
sustained plasma concentration ([14]; intravenous infusion, for ~72 hours): > 40 nM
decrease of DNMT1 protein at time-of-response compared to pre-treatment [8]: ~50%
GI50 [12, 17]: 3 µM
decrease of DCK expression at relapse [13]: ~50%
increase of CDA expression at relapse [13]: ~3 fold
increase of UCK2 expression at relapse [13]: ~8 fold
average increase of CAD expression at relapse [13]: ~8 fold

Nc1ccn([C@H]2C[C@H](O)[C@@H](CO)O2)c(=O)n1 [deoxycytidine]
AML cell proliferation [11]: did not impact proliferation

Nc1ccn([C@@H]2O[C@H](CO)[C@@H](O)[C@H]2O)c(=O)n1 [cytidine]
AML cell proliferation [11]: did not impact proliferation

NC(=O)NO [hydroxyurea]
added benefit of ribonucleotide reductase inhibitor to THU+decitabine [1]: did not add further benefit to THU+decitabine
